The text below walks through data of ChEMBL document CHEMBL1131553, “Orally active indole N-oxide PDE4 inhibitors” (Bioorg Med Chem Lett, 1998).

The term inhibition in vivo denotes the drop in the measured response relative to a control, in per cent. Lower therefore signals a response near the control. What is called IC50 is the point on the concentration scale where inhibition reaches its midpoint. A lower IC50 goes with inhibition by little substance. As usually defined, the Ki is a measure of affinity in units of concentration, obtained from inhibition or displacement. The ED50 is the dose at which the effect has come halfway, by size or by number of responders. A low value points to greater potency. As usually defined, the AUC is concentration integrated over time. Higher therefore signals more exposure. By half-life is commonly meant the time in which the quantity being followed falls by half. A low value points to fast loss. For orientation: bioavailability means dose-corrected exposure relative to a reference, in per cent. A lower bioavailability goes with poor availability. Usually clearance stands for the volume of plasma or blood freed of the substance per unit of time. Broadly, the Tmax is the time from dosing to the highest level.

The structures appear in SMILES notation.

Data set [1] deals with Mus musculus. The experiment in a line: In vivo inhibition of LPS induced tumor necrosis factor (TNF-alpha) in mice at 50 mg/kg. Type of data set: functional.
In data set [2] the target is T1, Phosphodiesterase 4 (Homo sapiens, UniProt P27815+Q08499+Q07343+Q08493). The experiment in a line: Inhibition of phosphodiesterase type IV (PDE4) activity. It is filed as protein assay.
Data set [3] deals with T1, Phosphodiesterase 4. Type of data set: protein assay.
The subject of data set [4] is Mus musculus. The experiment in a line: In vivo inhibition of LPS induced tumor necrosis factor (TNF-alpha) in mice at 10 mg/kg. Type of data set: functional.
In data set [5] the test system is Rattus norvegicus. The experiment in a line: Streptococcal cell wall-washed arthritis model in rats at 30.0 mg/kg peroral dose. It is filed as functional. The note with it: route oral.
Data set [6] relates to Rattus norvegicus. The experiment in a line: Inhibition of streptococcal cell wall-washed arthritis model in rats at 10.0 mg/kg peroral dose. It is filed as functional. The note with it: route oral.
Data set [7] deals with Rattus norvegicus. The experiment in a line: Percentage change in body weight of rats in streptococcal cell wall-washed arthritis model at 10.0 mg/kg peroral dose. Type of data set: functional. The note with it: route oral.
The subject of data set [8] is Canis familiaris. The data set is described as follows: Emetic effect in dogs on intravenous dose (0/4). It is filed as functional. Particulars: Canis lupus familiaris.
Data set [9] has as its system Rattus norvegicus. The experiment in a line: Streptococcal cell wall-washed arthritis model in rats at 10.0 mg/kg peroral dose. Type of data set: functional. Particulars: route oral.
Data set [10] can be described thus: Area under curve by ioral administration in mouse. Type of data set: ADME, organism-based. Particulars: in vivo, po.
Data set [11] in a line: Value distribution upon iv administration in mouse. The note with it: in vivo, read-out: Vdss. Type of data set: ADME, organism-based.
Data set [12] can be described thus: Half-life by oral administration in mouse. It is filed as ADME, organism-based. Particulars: in vivo.
The test system of data set [13] is Rattus norvegicus. The data set is described as follows: Inhibition of streptococcal cell wall-washed arthritis model in rats at 3.0 mg/kg peroral dose. Type of data set: functional. The note with it: route oral.
The nature of data set [14]: Oral bioavailability in mouse. Type of data set: ADME, organism-based. Particulars: in vivo.
Data set [15] has as its system Rattus norvegicus. The experiment in a line: Percentage change in body weight of rats in streptococcal cell wall-washed arthritis model at 3.0 mg/kg peroral dose. The note with it: route oral. Type of data set: functional.
Data set [16] is described as follows: Plasma clearance value upon iv administration in mouse. Type of data set: ADME, organism-based.
The test system of data set [17] is Rattus norvegicus. The experiment in a line: Streptococcal cell wall-washed arthritis model in rats at 3.0 mg/kg peroral dose. Type of data set: functional. The note with it: route oral.
Data set [18] concerns Rattus norvegicus. The experiment in a line: Percentage change in body weight of rats in streptococcal cell wall-washed arthritis model at 30.0 mg/kg peroral dose. It is filed as functional. The note with it: route oral.
Data set [19] deals with Rattus norvegicus. The experiment in a line: Inhibition of streptococcal cell wall-washed arthritis model in rats at 30.0 mg/kg peroral dose. Particulars: route oral. Type of data set: functional.
Data set [20] is described as follows: Maximum concentration in plasma upon oral administration in mouse. Particulars: read-out: Cp max. It is filed as ADME, organism-based.
A short description of data set [21]: Half-life by iv administration in mouse. The note with it: in vivo. Type of data set: ADME, organism-based.
In data set [22] the test system is Mus musculus. The experiment in a line: In vivo inhibition of LPS induced tumor necrosis factor (TNF-alpha) in mice. It is filed as functional.
A short description of data set [23]: Time taken to reach maximum concentration in plasma upon oral administration in mouse. Type of data set: ADME, organism-based.
Data set [24] is described as follows: Area under curve by iv administration in mouse. It is filed as ADME, organism-based. Particulars: in vivo.
Data set [25] relates to Canis familiaris. The data set is described as follows: Emetic effect in dogs on intravenous dose (3/4). Type of data set: functional. Particulars: Canis lupus familiaris.
In data set [26] the test system is Canis familiaris. The data set is described as follows: Emetic effect in dogs on intravenous dose (2/2). It is filed as functional. Particulars: Canis lupus familiaris.
Data set [27] deals with Canis familiaris. The data set is described as follows: Emetic effect in dogs on intravenous dose (4/4). Type of data set: functional. The note with it: Canis lupus familiaris.

For `Cc1noc(C)c1Cn1cc(C)c2ccc(C(=O)Nc3c(Cl)c[n+]([O-])cc3Cl)cc21`, in [1], 50 mg/kg produced 40% inhibition in vivo. Besides, the IC50 in data set [2] was 0.5 µM. This molecule also yielded a Ki in [3] of 0.225 µM.
`Cc1cn(CC(C)C)c2cc(C(=O)Nc3c(Cl)c[n+]([O-])cc3Cl)ccc12`: testing at 10 mg/kg in data set [4] gave an inhibition in vivo of 0%. Further, the IC50 in [2] worked out at 0.038 µM. Further, the Ki in [3] is 0.116 µM.
As to `Cc1cn(Cc2ccc(Cl)cc2)c2cc(C(=O)Nc3c(Cl)c[n+]([O-])cc3Cl)ccc12`, in data set [1], 50 mg/kg produced 10% inhibition in vivo. In [2], this molecule gave an IC50 of 0.012 µM. This molecule showed a Ki in data set [3] of 0.071 µM.
As for `Cc1nc(Cn2cc(C)c3ccc(C(=O)Nc4c(Cl)c[n+]([O-])cc4Cl)cc32)cs1`, 50 mg/kg produced 52% inhibition in vivo in data set [1]. Besides, the IC50 in [2] amounted to 0.08 µM. Besides, the Ki in [3] came to 0.064 µM.
The molecule `Cc1cn(Cc2ccccc2)c2cc(C(=O)Nc3c(Cl)cncc3Cl)ccc12` displayed an inhibition in vivo at 50 mg/kg in data set [1] of 0%.
In [1], `Cc1cn(Cc2ccc(S(C)(=O)=O)cc2)c2cc(C(=O)Nc3c(Cl)c[n+]([O-])cc3Cl)ccc12` had an inhibition in vivo at 50 mg/kg of 38%. This molecule displayed an IC50 in data set [2] of 0.26 µM. The molecule also had a Ki in data set [3] of 1.124 µM.
Turning to `Cc1cn(CC2CCCCC2)c2cc(C(=O)Nc3c(Cl)c[n+]([O-])cc3Cl)ccc12`, the “Mean AUC” value in [5] is reported as 1.1; in data set [9] it was 3.3; in data set [17], 3.7. For the same molecule, the inhibition in vivo at 10 mg/kg in [6] stood at 33%. Also, the results for the Change in data set [7], in data set [15] and in data set [18] were -7%, -5% and -13%, respectively. The values for the ED50 in data set [8] and in [22] were more than 0.8 mg/kg and 7.1 mg/kg, respectively. In addition, the AUC in data set [10] was found to be 3140 ng·h/mL; in data set [24], 3260 ng·h/mL. Further, the Vd in [11] turned out to be 1.7 L/kg. Besides, the half-life in data set [12] was 2.5 h; in [21] it was 3.6 h. The molecule also had an inhibition in vivo at 3 mg/kg in data set [13] of 25%. The same molecule returned a bioavailability in data set [14] of 96%. In data set [16], the clearance was 5 mL/min/kg. For the same molecule, the inhibition in vivo at 30 mg/kg in [19] turned out to be 77%. For the same molecule, the IC50 in data set [2] was 0.03 µM. Further, the Ki in data set [3] was 0.086 µM. In addition, the Cmax in data set [20] came out at 439 ng/mL. The Tmax in data set [23] is 1 h.
As for `Cc1cn(Cc2ccccc2)c2cc(C(=O)Nc3c(Cl)c[n+]([O-])cc3Cl)ccc12`, the ED50 in [8] worked out at 3 mg/kg; in data set [22], 20 mg/kg. The values for the AUC in data set [10] and in data set [24] were 669 ng·h/mL and 2020 ng·h/mL, respectively. Besides, in data set [11], the Vd was found to be 0.9 L/kg. The values for the half-life in [12] and in data set [21] were 3.7 h and 5.1 h, respectively. Further, the bioavailability in [14] worked out at 33%. Further, the clearance in data set [16] was 8.33 mL/min/kg. The same molecule gave an IC50 in data set [2] of 0.008 µM. In [3], this molecule came in with a Ki of 0.06 µM. For the same molecule, the Cmax in data set [20] was found to be 393 ng/mL. In [23], the Tmax came to 0.25 h.
With `Cc1cn(Cc2nccn2Cc2ccccc2)c2cc(C(=O)Nc3c(Cl)c[n+]([O-])cc3Cl)ccc12`, at 50 mg/kg the inhibition in vivo in [1] was 38%. For the same molecule, the IC50 in [2] turned out to be 0.42 µM. This molecule registered a Ki in [3] of 0.393 µM.
For `Cc1cn(CCC2CCCCC2)c2cc(C(=O)Nc3c(Cl)c[n+]([O-])cc3Cl)ccc12`, the ED50 came to 1 mg/kg in data set [25] and 7.4 mg/kg in data set [22]. Besides, the IC50 in data set [2] amounted to 0.0041 µM. The same molecule had a Ki in data set [3] of 0.012 µM.
Take `Cc1cn(CC2CCCCC2)c2cc(C(=O)Nc3c(Cl)cncc3Cl)ccc12`: the inhibition in vivo at 50 mg/kg in data set [1] was 0%.
`Cc1cn(C2CCCCC2)c2cc(C(=O)Nc3c(Cl)c[n+]([O-])cc3Cl)ccc12`: in data set [2], the IC50 came to 0.019 µM. Also, the Ki in data set [3] was determined as 0.038 µM.
Consider `Cc1cn(CCCc2ccccc2)c2cc(C(=O)Nc3c(Cl)c[n+]([O-])cc3Cl)ccc12`, for which 50 mg/kg produced 34% inhibition in vivo in data set [1]. The molecule further had an IC50 in [2] of 0.007 µM. Also, the Ki in [3] is 0.03 µM.
In data set [1], `Cc1cn(Cc2ccc3c(c2)OCO3)c2cc(C(=O)Nc3c(Cl)c[n+]([O-])cc3Cl)ccc12` came in with an inhibition in vivo at 50 mg/kg of 40%. This molecule also yielded a half-inhibitory concentration (IC50) in data set [2] of 0.024 µM. The same molecule had a Ki in data set [3] of 0.086 µM.
In the case of `COc1ccc(C2CNC(=O)C2)cc1OC1CCCC1` (configuration not stated) [ROLIPRAM], the ED50 in data set [26] is 0.03 mg/kg; in data set [22], 8.2 mg/kg.
Turning to `COc1ccc(C(=O)Nc2c(Cl)cncc2Cl)cc1OC1CCCC1`, the ED50 was determined as 0.6 mg/kg in data set [27] and 3.1 mg/kg in data set [22].
Regarding `Cc1cn(Cc2ccc(C(F)(F)F)cc2)c2cc(C(=O)Nc3c(Cl)c[n+]([O-])cc3Cl)ccc12`, the half-maximal inhibitory concentration (IC50) in data set [2] amounted to 0.014 µM. The same molecule registered a Ki in data set [3] of 0.067 µM. In [22], this molecule gave an ED50 of 10 mg/kg.
`Cc1cn(CCCC2CCCCC2)c2cc(C(=O)Nc3c(Cl)c[n+]([O-])cc3Cl)ccc12`: the inhibition in vivo at 50 mg/kg in [1] was determined as 47%. In data set [2], this molecule yielded an IC50 of 0.016 µM. The molecule further returned a Ki in data set [3] of 0.067 µM.
In data set [4], `Cc1cn(CCCCc2ccccc2)c2cc(C(=O)Nc3c(Cl)c[n+]([O-])cc3Cl)ccc12` came in with an inhibition in vivo at 10 mg/kg of 53%. This molecule also displayed an IC50 in data set [2] of 0.046 µM. In [3], this molecule had a Ki of 0.135 µM.
Regarding `Cc1cn(Cc2ccc(C(=O)O)cc2)c2cc(C(=O)Nc3c(Cl)c[n+]([O-])cc3Cl)ccc12`, in data set [2], the IC50 is 1.4 µM. This molecule also came in with a Ki in data set [3] of 3.184 µM.
As for `Cc1cn(Cc2ccc3ccccc3c2)c2cc(C(=O)Nc3c(Cl)c[n+]([O-])cc3Cl)ccc12`, in data set [2], the IC50 amounted to 0.022 µM. In addition, the Ki in [3] stood at 0.051 µM.
Consider `Cc1cn(CC2CCCCCC2)c2cc(C(=O)Nc3c(Cl)c[n+]([O-])cc3Cl)ccc12`, for which 10 mg/kg produced 8% inhibition in vivo in data set [4]. In [2], this molecule had an IC50 of 0.02 µM. This molecule also showed a Ki in data set [3] of 0.03 µM.
